The values that follow come from US20120083013A1, “GLUCOSYLTRANSFERASE SPECIFIC TO POSITION-4 OF FUROFURAN-TYPE LIGNAN, AND POLYNUCLEOTIDE ENCODING SAME” (Suntory Holdings Limited, priority 2009, published 2012).

In one experiment the test system is RengUGT13. The experiment can be described thus: glucosyltransferase reaction of recombinant RengUGT13 with lignan (HPLC, LC-MS of the product). The note with it: 1 mM UDP-glucose, 100 μM glycosyl acceptor substrate, pH 7.5, 30° C., one hour. In kind it is biochemical, Forsythia koreana. The procedure: To clarify the biochemical functions of the enzymes, the two enzymes were expressed in Escherichia coli. Using the plasmid for two RengUGT Escherichia coli expression obtained above, Escherichia coli BL21 (DE3) strain was transformed in a conventional manner. The resulting transformants were shake cultured in 4 ml of LB medium (10 g/l tryptone peptone, 5 g/l yeast extract, 1 g/l NaCl) containing 50 μg/ml of ampicillin at 37° C. overnight. When the cells reached the stationary phase, 4 ml of the culture broth was inoculated onto 80 ml of fresh medium of the same composition, followed by shake culture at 37° C. […]
Lc-2010c (Shimadzu Corp.) was used for LC; eluent A: 0.1% TFA and eluent B: 0.1% TFA/90% acetonitrile as the moving phase; Develosil-C30-UG5 (Nomura Chemical, 4.6 mm×150 mm) as the column at 40° C. […] Based on the analysis that the spectra from 220 nm to 330 nm were measured using SPD-10AV (Shimadzu Corp.), search was made for substances having two absorption maxima (230 nm and 280 nm) inherent to lignans. Under the conditions, the lignan of structural formula (Ia) was detected at approximately 11.6 minutes, the lignan of structural formula (Ib) at approximately 12.2 minutes, the lignan of structural formula (Ic) at approximately 13.8 minutes, and the lignan of structural formula (V) at approximately 9.8 minutes. […]

Another experiment deals with RengUGT14. The experiment is described as follows: glycosyl acceptor selectivity of recombinant RengUGT14 (standard enzyme reaction, HPLC analysis). In kind it is biochemical, Forsythia koreana. The conditions noted are these: 1 mM UDP-glucose, 100 μM glycosyl acceptor substrate, pH 7.5, 30° C., one hour; for transglycosylation activity (activity against the lignan of structural formula (Ia) made 100): relative activity as glycosyl acceptor substrate. The procedure: To clarify the biochemical functions of the enzymes, the two enzymes were expressed in Escherichia coli. Using the plasmid for two RengUGT Escherichia coli expression obtained above, Escherichia coli BL21 (DE3) strain was transformed in a conventional manner. The resulting transformants were shake cultured in 4 ml of LB medium (10 g/l tryptone peptone, 5 g/l yeast extract, 1 g/l NaCl) containing 50 μg/ml of ampicillin at 37° C. overnight. When the cells reached the stationary phase, 4 ml of the culture broth was inoculated onto 80 ml of fresh medium of the same composition, followed by shake culture at 37° C. At the point when the cell turbidity (OD 600) reached approximately 0.5, IPTG in a final concentration of 0.5 mM was added to the cells, followed by shake culture at 18° C. for 20 hours. The following procedures were all carried out at 4° C. The transformants cultured were collected by centrifugation (5,000×g, 10 mins.) and suspended by adding 1 ml/g cell of Buffer S (20 mM HEPES buffer (pH 7.5), 20 mM imidazole and 14 mM […]. Subsequently, the suspension was ultrasonicated (15 secs×8 times) and then centrifuged (15,000×g, 15 mins.). The supernatant obtained was recovered as a crude enzyme solution. The crude enzyme solution was loaded onto His SpinTrap (GE Healthcare), which had been equilibrated with Buffer S, and centrifuged (70×g, 30 secs.). After washing with the buffer, the proteins bound to the column were eluted stepwise with 5 ml each of Buffer S containing 100 mM and 500 mM imidazole. In each of the eluted fractions, the buffer was replaced through a Microcon YM-30 (Amicon) by 20 mM HEPES buffer (pH 7.5)/14 mM β-mercapto ethanol (magnification of dialysis, ×1000). As a result of the SDS-PAGE analysis, in the fraction eluted with […], the protein was confirmed at approximately 50 KDa of the estimated molecular weight for the two RengUGTs. This fraction was used for the enzyme analysis (FIG. 2). Conditions for the standard enzyme reaction are as follows. […] Based on the analysis that the spectra from 220 nm to 330 nm were measured using SPD-10AV (Shimadzu Corp.), search was made for substances having two absorption maxima (230 nm and 280 nm) inherent to lignans. Under the conditions, the lignan of structural formula (Ia) was detected at approximately 11.6 minutes, the lignan of structural formula (Ib) at approximately 12.2 minutes, the lignan of structural formula (Ic) at approximately 13.8 minutes, and the lignan of structural formula (V) at approximately 9.8 minutes. The expression level of RengUGT14 recombinant protein was high in Escherichia coli (FIG. 2), and the glycosyl acceptor selectivity was evaluated using this enzyme. […]

Turning to `COc1cc([C@H]2OC[C@H]3[C@@H]2CO[C@@H]3c2ccc(O)c(OC)c2)ccc1O` [structural formula (Ia)], the “glucose transfer to the lignan by RengUGT13 (product peak at HPLC, monoglucoside by LC-MS)” value in the experiment with RengUGT13 is “activity of transferring one molecule of glucose”. Besides, in the experiment on RengUGT14, the “glucose transfer to the lignan by RengUGT14 (product peak at HPLC, monoglucoside by LC-MS)” value was “activity of transferring one molecule of glucose” and the “transglycosylation activity (activity against the lignan of structural formula (Ia) made 100)” value (from here on “transglycosylation activity”) is listed as 100. `COc1cc([C@H]2OC[C@H]3[C@@H]2CO[C@H]3c2ccc(O)c(OC)c2)ccc1O` [structural formula (Ib)]: the “transglycosylation activity” value in the experiment with RengUGT14 was 112. As to `COc1cc([C@H]2OC[C@H]3[C@@H]2CO[C@H]3c2ccc(OC)c(OC)c2)ccc1O` [structural formula (Ic)], the “transglycosylation activity” value in the experiment on RengUGT14 was 128.
